From ChEMBL document CHEMBL1777738, “3-Cyano-6-(5-methyl-3-pyrazoloamino)pyridines: selective Aurora A kinase inhibitors” (Bioorg Med Chem Lett, 2010)

Legend:
Aurora kinase A = target: T1, Aurora kinase A (Homo sapiens, UniProt O14965)
T1 sequence (O14965 whole entry): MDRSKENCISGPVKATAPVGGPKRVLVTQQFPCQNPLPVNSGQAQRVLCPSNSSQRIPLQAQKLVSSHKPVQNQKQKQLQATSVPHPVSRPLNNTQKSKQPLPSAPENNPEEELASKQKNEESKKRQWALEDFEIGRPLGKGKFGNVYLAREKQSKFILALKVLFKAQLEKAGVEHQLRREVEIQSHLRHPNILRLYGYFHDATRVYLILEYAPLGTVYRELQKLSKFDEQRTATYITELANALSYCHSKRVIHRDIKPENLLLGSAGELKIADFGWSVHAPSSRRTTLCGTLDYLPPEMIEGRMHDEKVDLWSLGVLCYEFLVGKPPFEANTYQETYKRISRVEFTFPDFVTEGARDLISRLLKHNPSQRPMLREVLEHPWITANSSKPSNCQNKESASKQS
Description: Inhibition of phosphotransferase activity of recombinant aurora A expressed in HeLa cells

[1] = Intrinsic clearance in human hepatic microsomes; assay type: ADME, Liver, Microsome
HCT-116 [2] = assay: Antitumor activity against human HCT116 cells xenografted in mouse assessed as tumor growth inhibition at 30 mg/kg, ip qd for 14 days
HCT-116 [3] = assay: Antitumor activity against human HCT116 cells xenografted in mouse assessed as tumor growth inhibition at 100 mg/kg, ip qd for 14 days
HCT-116 [4] = assay: Antiproliferative activity against human HCT116 cells; assay type: functional, cell-based
Aurora kinase B = Aurora kinase B (Homo sapiens, UniProt Q96GD4); assay: Inhibition of aurora B
[5] = Cmax in rat at 30 mg/kg, po; assay type: ADME, organism-based; parameters: dose 30 mg/kg, route oral; conditions: in vivo
[6] = Tmax in rat at 30 mg/kg, po; assay type: ADME, organism-based; parameters: dose 30 mg/kg, route oral; conditions: in vivo
[7] = Half life in rat at 30 mg/kg, po; assay type: ADME, organism-based; parameters: dose 30 mg/kg, route oral; conditions: in vivo
[8] = Drug level in rat serum at 30 mg/kg, po after 24 hrs; assay type: ADME, organism-based; parameters: dose 30 mg/kg, route oral; conditions: read-out: Drug uptake
HCT-116 [9] = assay: Antitumor activity against human HCT116 cells xenografted in mouse assessed as tumor growth inhibition at 30 mg/kg, po qd for 14 days; assay type: functional; conditions: HCT-116, 336 h
Mus musculus = assay: Toxicity in human HCT116 cells xenografted mouse assessed as reduction in body weight at 30 mg/kg, po qd for 14 days; assay type: organism-based, HCT-116; parameters: dose 30 mg/kg, route oral; conditions: in vivo, 336 h
[10] = target: Proto-oncogene tyrosine-protein kinase Src (Homo sapiens, UniProt P12931); assay: Inhibition of c-SRC
[11] = target: Tyrosine-protein kinase Fyn (Homo sapiens, UniProt P06241); assay: Inhibition of Fyn
[12] = target: Tyrosine-protein kinase Yes (Homo sapiens, UniProt P07947); assay: Inhibition of Yes
Tyrosine-protein kinase Yes, sequence (P07947 whole entry): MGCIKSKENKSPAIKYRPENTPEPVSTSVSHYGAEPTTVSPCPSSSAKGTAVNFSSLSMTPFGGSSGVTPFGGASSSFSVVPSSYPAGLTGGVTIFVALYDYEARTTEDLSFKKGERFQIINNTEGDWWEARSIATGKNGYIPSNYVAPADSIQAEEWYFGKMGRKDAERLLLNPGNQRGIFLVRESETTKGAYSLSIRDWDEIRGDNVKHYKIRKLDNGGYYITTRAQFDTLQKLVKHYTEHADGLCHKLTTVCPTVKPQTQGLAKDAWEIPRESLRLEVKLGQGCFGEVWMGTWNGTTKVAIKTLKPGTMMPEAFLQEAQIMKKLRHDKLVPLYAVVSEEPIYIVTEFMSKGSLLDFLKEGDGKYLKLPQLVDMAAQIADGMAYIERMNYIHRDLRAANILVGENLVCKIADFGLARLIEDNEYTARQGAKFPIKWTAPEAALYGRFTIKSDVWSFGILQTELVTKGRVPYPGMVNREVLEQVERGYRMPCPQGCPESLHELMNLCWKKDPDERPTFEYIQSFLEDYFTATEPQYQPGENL

Aurora kinase B, sequence (Q96GD4 whole entry): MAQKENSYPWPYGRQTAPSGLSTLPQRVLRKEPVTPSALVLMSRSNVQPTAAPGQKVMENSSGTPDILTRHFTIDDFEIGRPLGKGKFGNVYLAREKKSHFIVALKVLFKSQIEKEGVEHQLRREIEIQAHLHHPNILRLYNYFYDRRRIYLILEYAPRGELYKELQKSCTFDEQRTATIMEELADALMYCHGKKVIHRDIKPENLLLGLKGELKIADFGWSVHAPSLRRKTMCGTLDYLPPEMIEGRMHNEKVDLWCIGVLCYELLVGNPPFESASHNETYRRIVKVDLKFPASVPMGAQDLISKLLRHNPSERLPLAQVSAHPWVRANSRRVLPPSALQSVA
Proto-oncogene tyrosine-protein kinase Src, sequence (P12931 2-536 limits assumed): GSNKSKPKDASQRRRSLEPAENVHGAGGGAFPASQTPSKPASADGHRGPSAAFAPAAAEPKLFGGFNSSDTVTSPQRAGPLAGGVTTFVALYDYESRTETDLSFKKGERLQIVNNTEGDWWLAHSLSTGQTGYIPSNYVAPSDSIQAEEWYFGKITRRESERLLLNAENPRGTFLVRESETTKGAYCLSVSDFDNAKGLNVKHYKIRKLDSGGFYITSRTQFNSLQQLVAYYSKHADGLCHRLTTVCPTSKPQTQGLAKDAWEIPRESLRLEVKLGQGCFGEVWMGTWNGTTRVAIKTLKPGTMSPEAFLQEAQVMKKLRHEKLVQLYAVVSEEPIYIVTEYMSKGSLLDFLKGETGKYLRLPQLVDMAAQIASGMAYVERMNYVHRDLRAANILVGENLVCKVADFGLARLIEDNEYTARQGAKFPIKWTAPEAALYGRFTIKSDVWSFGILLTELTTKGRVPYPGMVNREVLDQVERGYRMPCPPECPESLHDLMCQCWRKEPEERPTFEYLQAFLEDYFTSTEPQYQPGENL
Tyrosine-protein kinase Fyn, sequence (P06241 whole entry): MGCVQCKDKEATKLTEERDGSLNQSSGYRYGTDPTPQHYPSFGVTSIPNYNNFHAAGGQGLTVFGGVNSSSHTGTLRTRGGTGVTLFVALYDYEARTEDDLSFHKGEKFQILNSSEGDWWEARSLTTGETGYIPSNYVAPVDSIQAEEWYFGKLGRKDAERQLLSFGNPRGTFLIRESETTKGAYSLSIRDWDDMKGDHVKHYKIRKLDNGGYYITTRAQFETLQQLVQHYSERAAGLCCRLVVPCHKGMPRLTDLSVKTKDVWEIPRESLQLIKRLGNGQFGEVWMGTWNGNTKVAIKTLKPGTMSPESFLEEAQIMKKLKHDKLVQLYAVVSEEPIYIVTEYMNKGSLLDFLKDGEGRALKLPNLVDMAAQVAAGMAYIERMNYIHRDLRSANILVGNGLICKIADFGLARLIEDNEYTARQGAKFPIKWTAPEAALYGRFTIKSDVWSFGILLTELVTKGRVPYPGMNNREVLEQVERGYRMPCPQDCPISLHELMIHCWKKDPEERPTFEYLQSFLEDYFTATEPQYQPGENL

Cc1cc(Nc2cc(C)c(C#N)c(SCCCCCCO)n2)[nH]n1
Ki (Aurora kinase A): 8.5 nM

Cc1cc(Nc2cc(-c3ccccc3)c(C#N)c(Sc3ccc(NC(=O)C(C)C)cc3)n2)n[nH]1
Ki (Aurora kinase A): 310 nM

Cc1cc(Nc2cc(C)c(C#N)c(NCCCCCC(C)(C)O)n2)n[nH]1
Ki (Aurora kinase A): 2.3 nM

Cc1cc(Nc2cc(C)c(C#N)c(N[C@H](C)CCCC(C)(C)O)n2)n[nH]1
CL [1]: 110 µL/min/mg
Ki (Aurora kinase A): 66 nM

Cc1cc(Nc2cc(C)c(C#N)c(SCCCCCCN)n2)[nH]n1
Ki (Aurora kinase A): 28 nM

Cc1cc(Nc2cc(C)c(C#N)c(SCCCCCC(C)(C)O)n2)[nH]n1
Ki (Aurora kinase A): 9.7 nM

Cc1cc(Nc2cc(N3CCN(C)CC3)nc(Sc3ccc(NC(=O)C4CC4)cc3)n2)n[nH]1
growth inhibition (GI) (HCT-116 [2]): 60%
growth inhibition (GI) (HCT-116 [3]): 68%

Cc1cc(Nc2cc(C)c(C#N)c(NCCCCCCO)n2)[nH]n1
Ki (Aurora kinase A): 4.5 nM

CCCCCCSc1nc(Nc2cc(C)n[nH]2)cc(C)c1C#N
Ki (Aurora kinase A): 3.8 nM

CC(=O)Nc1ccc(Sc2nc(Nc3cc(C)n[nH]3)cc(C)c2C#N)cc1
Ki (Aurora kinase A): 5.3 nM

Cc1cc(Nc2cc(C)c(C#N)c(N[C@@H](C)CCCC(C)(C)O)n2)[nH]n1
IC50 (HCT-116 [4]): 52 nM
CL [1]: 50 µL/min/mg
Ki (Aurora kinase A): 0.59 nM

Cc1cc(Nc2cc(C)c(C#N)c(NCCO)n2)[nH]n1
Ki (Aurora kinase A): 20 nM

Cc1cc(Nc2cc(C)c(C#N)c(NC(C)CCCC(C)(C)O)n2)n[nH]1.Cl (racemic)
Ki (Aurora kinase B): 101 nM
IC50 (HCT-116 [4]): 115 nM
Cmax [5]: 4930 nM
Tmax [6]: 1.2 h
half-life [7]: 3.3 h
concentration at 24 h [8]: 52 nM
inhibition in vivo at 30 mg/kg (HCT-116 [9]): 59%
Activity (Mus musculus): Non-toxic
Ki [10]: 26 nM
Ki [11]: 28 nM
CL [1]: 70 µL/min/mg
Ki [12]: 24 nM
Ki (Aurora kinase A): 1.2 nM
